Laboratory results published in patent US10450344B2, “Antibody-binding polypeptide, antibody-binding fusion polypeptide, and adsorption material” (FUJIFILM Corporation, priority 2014, dated 2019).
Square brackets hold non-standard residues; d marks the D form. Peptide text beside a SMILES is read from it. PEG8 = NCCOCCOCCOCCOCCOCCOCCOCCOCCC(=O)O

Assays:
human IgG antibody = assay: SPR evaluation of antibody binding properties of ligand immobilized on CM5 sensor chip; conditions: for dissociation rate Koff: SPR, human IgG antibody, 25° C., HEPES buffer, fitting with BIAevaluation4.1
Procedure: The association rate Kon [nM/s] and the dissociation rate Koff [l/s ] of an antibody were calculated from the binding reaction curve, and also the dissociation constant Kd [nM] in the binding reaction of polypeptide 1 with a human IgG antibody was calculated.

[1] = molecular target: Bovine Serum Albumin (BSA) (Bos taurus, UniProt P02769); assay: SPR evaluation of selectivity (binding of BSA to immobilized carrier)
Chain of Bovine Serum Albumin (BSA) (P02769 25-607): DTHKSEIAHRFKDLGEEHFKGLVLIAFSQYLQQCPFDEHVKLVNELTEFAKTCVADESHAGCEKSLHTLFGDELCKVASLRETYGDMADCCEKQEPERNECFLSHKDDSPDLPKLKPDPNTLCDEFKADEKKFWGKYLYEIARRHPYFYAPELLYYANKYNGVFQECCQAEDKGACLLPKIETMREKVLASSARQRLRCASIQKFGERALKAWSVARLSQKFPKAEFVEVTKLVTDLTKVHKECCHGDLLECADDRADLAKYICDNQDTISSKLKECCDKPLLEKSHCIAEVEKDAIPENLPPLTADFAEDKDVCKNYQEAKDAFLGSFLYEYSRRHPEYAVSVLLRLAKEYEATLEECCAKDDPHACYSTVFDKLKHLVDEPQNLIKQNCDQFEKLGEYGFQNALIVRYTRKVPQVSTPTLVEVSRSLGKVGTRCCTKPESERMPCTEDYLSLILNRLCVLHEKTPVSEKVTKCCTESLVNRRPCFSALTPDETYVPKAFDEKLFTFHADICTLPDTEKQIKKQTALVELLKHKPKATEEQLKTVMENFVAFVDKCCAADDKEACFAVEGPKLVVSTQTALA
Procedure: A commercially available CM5 (carboxymethyl dextran introduction type, manufactured by GE Healthcare) sensor chip was set on a surface plasmon resonance (SPR) apparatus Biacore (manufactured by GE Healthcare), HEPES buffer (20 mM HEPES-HCl, 150 mM NaCl, pH 7.4) for SPR was stabilized at a flow rate of 10 μL/min, and 70 μL of a mixed aqueous solution of 0.2 M 1-ethyl-3-(3-dimethylaminopropyl)carbodiimide (EDC, manufactured by Wako Pure Chemical Industries, Ltd.) and 0.04 M N-hydroxysuccinimide (NHS, manufactured by Wako Pure Chemical Industries, Ltd.) was added. Then, 500 μL of a sample solution of polypeptide 1 diluted to 100 μM with the above-mentioned HEPES buffer and treated with a 0.20 μm PTFE filter (manufactured by [sequence]) was supplied to a carrier sample, blocked by an ethanolamine solution, and washed with an aqueous sodium hydroxide solution, followed by immobilization to prepare an immobilized carrier.
1000 nM of Bovine Serum Albumin (BSA, manufactured by Sigma-Aldrich) was added to the immobilized carrier A prepared in the above (1) at 25° C. over 10 min, and the binding amount after 10 minutes in HEPES buffer was measured by SPR.

[2] = Evaluation of alkali resistance (1N NaOH, then antibody-binding amount by SPR); assay type: physicochemical
Procedure: The synthesized polypeptide 1 was immersed in 1N NaOH at room temperature for 1 hour, and then the ligand was immobilized as in the above (1).

[3] = Evaluation of temporal stability (solution stored at 40° C. for one month, then antibody-binding amount by SPR)
Procedure: A solution of the synthesized polypeptide 1 was stored in a constant-temperature zone (40° C.) for one month, and then the ligand was immobilized as in the above (1).

| Molecule | dissociation rate Koff (human IgG antibody) | further results |
| --- | --- | --- |
| H-EQQNAFY-OH [Example 1, EQQNAFY] | 0.00017 s⁻¹ |  |
| H-EQQSAFY-OH [Example 10, EQQSAFY] | 0.00015 s⁻¹ |  |
| H-EGQNAFY-OH [Example 5, EGQNAFY] | 0.0002 s⁻¹ |  |
| Comparative Example 1: wild-type protein A (manufactured by Repligen Corporation) [reference compound] | 0.00025 s⁻¹ |  |
| H-EAQQSAFY-OH [Example 14] | 0.00014 s⁻¹ |  |
| H-EQQNAFYEILH-OH [Example 3] | 0.00017 s⁻¹ |  |
| H-EQQNAFYEILHL-OH [Example 4] | 0.00013 s⁻¹ |  |
| H-DQSAFY-OH [Example 18, DQSAFY] | 0.00019 s⁻¹ |  |
| H-QQNAFYEI-OH [Comparative Example 4, reference compound] | 0.00024 s⁻¹ | selectivity (in words) [1]: poor; antibody binding properties (in words) (human IgG antibody): poor |
| H-DQQSAFY-OH [Example 12, DQQSAFY] | 0.00015 s⁻¹ |  |
| H-DQQSAFYEILH-OH [Example 13] | 0.00015 s⁻¹ |  |
| H-EQQNAFYGGGKGGGEQQNAFY-OH [Example 8] | 0.00015 s⁻¹ |  |
| H-KKKEQQNAFYEILHKKK-OH [Example 7] | 0.00016 s⁻¹ |  |
| H-EQQNAFY-NH2 [Example 19, EQQNAFY-NH2] | 0.00015 s⁻¹ |  |
| Ac-KKKEQQNAFYEILHKKK-OH [Example 23] | 0.00016 s⁻¹ |  |
| H-EQSAFY-OH [Example 15, EQSAFY] | 0.00014 s⁻¹ |  |
| H-KKKEQQNAFYKKK-OH [Example 6] | 0.00015 s⁻¹ |  |
| H-DAQQSAFY-OH [Example 17] | 0.00013 s⁻¹ |  |
| H-EQNAFY-OH [Example 9, EQNAFY] | 0.00017 s⁻¹ |  |
| Ac-KKKEQQNAFYKKK-OH [Example 22] | 0.00015 s⁻¹ |  |
| H-KEQQNAFY-OH [Example 2] | 0.00013 s⁻¹ |  |
| NCCNc1nc(NCCc2ccc(O)cc2)nc(Nc2ccccc2)n1 [Comparative Example 3] | 0.00065 s⁻¹ | selectivity (in words) [1]: insufficient; alkali resistance (in words) [2]: sufficient; antibody binding properties (in words) (human IgG antibody): insufficient; temporal stability (in words) [3]: sufficient |
| H-EQQSAFYEILH-OH [Example 11] | 0.00018 s⁻¹ |  |
| H-EAQQNAFY-OH [Example 16] | 0.00019 s⁻¹ |  |
| CC(=O)N[C@@H](CCC(=O)O)C(=O)N[C@@H](CCC(N)=O)C(=O)N[C@@H](CCC(N)=O)C(=O)N[C@@H](CC(N)=O)C(=O)N[C@@H](C)C(=O)N[C@@H](Cc1ccccc1)C(=O)N[C@@H](Cc1ccc(O)cc1)C(=O)NCCOCCOCCOCCOCCOCCOCCOCCOCCC(=O)N[C@@H](CCCCN)C(=O)NCCOCCOCCOCCOCCOCCOCCOCCOCCC(=O)N[C@@H](CCC(=O)O)C(=O)N[C@@H](CCC(N)=O)C(=O)N[C@@H](CCC(N)=O)C(=O)N[C@@H](CC(N)=O)C(=O)N[C@@H](C)C(=O)N[C@@H](Cc1ccccc1)C(=O)N[C@@H](Cc1ccc(O)cc1)C(=O)O [Example 25, Ac-EQQNAFY-(peg)8-K-(peg)8-EQQNAFY] (Ac-EQQNAFY[PEG8]K[PEG8]EQQNAFY-OH) | 0.00019 s⁻¹ |  |
| C[C@H](NC(=O)[C@H](CC(N)=O)NC(=O)[C@H](CCC(N)=O)NC(=O)[C@H](CCC(N)=O)NC(=O)[C@H](CCC(=O)O)NC(=O)CCOCCOCCOCCOCCOCCOCCOCCOCCN)C(=O)N[C@@H](Cc1ccccc1)C(=O)N[C@@H](Cc1ccc(O)cc1)C(=O)N[C@@H](CCC(=O)O)C(=O)O [Example 24] (H-[PEG8]EQQNAFYE-OH) | 0.00013 s⁻¹ |  |
| Ac-EQQNAFYK-OH [Example 20] | 0.00014 s⁻¹ |  |
| Ac-EQQNAFYEILHK-OH [Example 21] | 0.00016 s⁻¹ |  |
